Source: patent publication US10174013B2, “Benzimidazole derivatives as kinase inhibitors” (SELVITA S.A., priority 2012, dated 2019)
Structures can show the parent of a compound that is named as a salt. Where two headings read alike, the source gives them in different places.

Key:
Pim-1 = Pim-1 (Homo sapiens (Human), UniProt P11309); assay: ADP-Glo Kinase Assay, Pim-1; type: biochemical; details: 1 μM compound; for inhibition at 1 µM: read-out: Pim-1 % INH (1 μM)
Method in brief: (§1)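 Compounds were diluted in assay buffer to 1000 nM and incubated with kinase, substrate and ATP at apparent Km. Remaining ATP was depleted, ADP converted to ATP and detected by luciferase; percent inhibition came from normalized luminescence.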

Pim-2 = Pim-2 (Homo sapiens (Human), UniProt Q9P1W9); assay: ADP-Glo Kinase Assay, Pim-2; type: biochemical; details: 1 μM compound; for inhibition at 1 µM: read-out: Pim-2 % INH (1 μM)
Chain of Pim-2 (Q9P1W9 whole entry): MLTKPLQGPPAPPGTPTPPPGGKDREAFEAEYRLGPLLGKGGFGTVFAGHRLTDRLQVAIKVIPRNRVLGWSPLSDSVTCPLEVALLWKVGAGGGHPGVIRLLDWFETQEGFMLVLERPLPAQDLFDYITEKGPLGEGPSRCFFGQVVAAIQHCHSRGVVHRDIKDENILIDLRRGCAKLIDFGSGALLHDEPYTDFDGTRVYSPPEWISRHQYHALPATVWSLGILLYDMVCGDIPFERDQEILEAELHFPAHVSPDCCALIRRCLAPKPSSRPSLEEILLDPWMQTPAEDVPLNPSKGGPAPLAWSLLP
Method in brief: as §1

Pim-3 = Pim-3 (Homo sapiens (Human), UniProt Q86V86); assay: ADP-Glo Kinase Assay, Pim-3; type: biochemical; details: 1 μM compound; for inhibition at 1 µM: read-out: Pim-3 % INH (1 μM)
Method in brief: as §1

FLT3wt = FLT3wt (Homo sapiens (Human), UniProt P36888); assay: ADP-Glo Kinase Assay, Flt3 wt; type: biochemical; details: 1 μM compound; for inhibition at 1 µM: read-out: Flt3wt % INH (1 μM)
Chain of FLT3wt (P36888 27-993): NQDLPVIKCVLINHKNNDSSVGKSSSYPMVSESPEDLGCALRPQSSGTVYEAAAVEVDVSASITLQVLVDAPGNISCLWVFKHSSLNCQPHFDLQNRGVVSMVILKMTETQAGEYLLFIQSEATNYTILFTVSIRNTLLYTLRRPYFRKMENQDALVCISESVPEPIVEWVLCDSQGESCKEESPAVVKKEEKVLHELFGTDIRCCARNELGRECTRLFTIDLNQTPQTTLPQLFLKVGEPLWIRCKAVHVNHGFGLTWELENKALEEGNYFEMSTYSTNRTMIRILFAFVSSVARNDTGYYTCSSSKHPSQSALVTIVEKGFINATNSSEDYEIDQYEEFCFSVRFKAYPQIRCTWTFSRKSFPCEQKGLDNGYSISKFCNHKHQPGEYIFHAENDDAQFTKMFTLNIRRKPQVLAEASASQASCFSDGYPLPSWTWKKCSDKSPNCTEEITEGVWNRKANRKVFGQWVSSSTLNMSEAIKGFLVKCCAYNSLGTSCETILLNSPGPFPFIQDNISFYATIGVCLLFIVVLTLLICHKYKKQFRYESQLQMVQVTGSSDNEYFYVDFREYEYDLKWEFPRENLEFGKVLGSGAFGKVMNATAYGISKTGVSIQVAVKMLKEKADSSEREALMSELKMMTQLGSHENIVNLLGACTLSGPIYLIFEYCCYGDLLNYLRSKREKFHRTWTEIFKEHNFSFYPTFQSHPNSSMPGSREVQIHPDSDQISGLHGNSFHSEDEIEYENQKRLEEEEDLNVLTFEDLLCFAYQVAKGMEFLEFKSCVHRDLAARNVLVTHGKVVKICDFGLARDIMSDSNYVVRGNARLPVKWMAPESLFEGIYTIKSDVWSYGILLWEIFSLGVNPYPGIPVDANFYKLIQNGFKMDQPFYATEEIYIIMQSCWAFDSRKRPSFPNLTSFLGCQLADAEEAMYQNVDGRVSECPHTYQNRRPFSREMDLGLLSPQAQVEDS
Method in brief: as §1

CDK2/E = CDK2/E (Homo sapiens (Human), UniProt P24941); assay: ADP-Glo Kinase Assay, CDK2/E; type: biochemical; details: 1 μM compound; for inhibition at 1 µM: read-out: CDK2/E % INH (1 μM)
Method in brief: as §1

DYRK1 = DYRK1 (Homo sapiens (Human), UniProt Q13627); assay: ADP-Glo Kinase Assay, DYRK1; type: biochemical; details: 1 μM compound; for inhibition at 1 µM: read-out: DYRK1A % INH (1 μM)
Method in brief: as §1

MV4-11 cells = assay: Growth inhibition, MTS assay, MV4-11; type: cell-based, Human; details: MTS cell viability, read-out: MV4-11 ED50
HepG2 cells = assay: Growth inhibition, MTS assay, HepG2; type: cell-based, Human; details: MTS cell viability, read-out: HepG2 ED50
hERG potassium channel = hERG potassium channel (Homo sapiens (Human), UniProt Q12809); assay: hERG automated patch clamp assay (QPatch HT)
Chain of hERG potassium channel (Q12809 whole entry): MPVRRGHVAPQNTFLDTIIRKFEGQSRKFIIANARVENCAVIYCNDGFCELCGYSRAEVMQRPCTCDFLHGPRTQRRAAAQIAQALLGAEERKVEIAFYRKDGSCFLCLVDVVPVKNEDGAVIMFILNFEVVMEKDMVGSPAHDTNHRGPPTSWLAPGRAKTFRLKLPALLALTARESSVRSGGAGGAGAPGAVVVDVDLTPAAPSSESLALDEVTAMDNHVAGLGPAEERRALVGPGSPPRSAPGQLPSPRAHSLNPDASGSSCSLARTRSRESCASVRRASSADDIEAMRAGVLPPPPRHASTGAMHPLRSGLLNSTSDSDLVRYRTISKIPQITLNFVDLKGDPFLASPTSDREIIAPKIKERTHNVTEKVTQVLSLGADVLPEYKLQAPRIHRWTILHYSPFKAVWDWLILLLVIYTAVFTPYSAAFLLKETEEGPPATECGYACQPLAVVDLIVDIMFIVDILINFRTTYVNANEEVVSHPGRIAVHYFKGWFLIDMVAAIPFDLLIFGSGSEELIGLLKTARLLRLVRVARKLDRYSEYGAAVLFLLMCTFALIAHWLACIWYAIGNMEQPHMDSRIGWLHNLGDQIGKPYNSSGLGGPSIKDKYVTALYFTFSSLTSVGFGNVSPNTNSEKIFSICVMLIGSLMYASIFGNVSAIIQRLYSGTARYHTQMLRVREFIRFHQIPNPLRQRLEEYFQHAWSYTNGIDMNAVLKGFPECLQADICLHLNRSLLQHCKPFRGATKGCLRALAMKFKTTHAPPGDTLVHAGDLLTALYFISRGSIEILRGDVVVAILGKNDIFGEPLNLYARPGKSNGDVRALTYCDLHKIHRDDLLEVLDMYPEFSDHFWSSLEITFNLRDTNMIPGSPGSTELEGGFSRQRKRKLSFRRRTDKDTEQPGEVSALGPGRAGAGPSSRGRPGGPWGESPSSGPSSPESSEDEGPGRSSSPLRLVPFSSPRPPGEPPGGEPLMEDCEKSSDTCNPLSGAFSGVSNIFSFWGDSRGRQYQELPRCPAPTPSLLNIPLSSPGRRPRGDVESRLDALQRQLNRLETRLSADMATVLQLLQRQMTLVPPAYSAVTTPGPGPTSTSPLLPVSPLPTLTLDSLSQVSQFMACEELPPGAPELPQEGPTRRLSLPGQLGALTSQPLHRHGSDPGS
Protocol: The hERG (human ether-A-go-go-related gene) channel corresponds to an important anti-target for potential new drugs since its inhibition may lead to sudden death. In order to establish whether the compounds of the present invention act on hERG, the following experiment was carried out.
The in vitro effects of the compounds indicated in Table 5 on the hERG potassium channel current (a surrogate for Iκr, the rapidly activating, delayed rectifier cardiac potassium current) expressed in mammalian cells were evaluated at room temperature using the QPatch HT® (Sophion Bioscience A/S, Denmark), an automatic parallel patch clamp system. Each compound indicated in Table 5 was evaluated at 0.1, 1, 3, 10 and 30 μM with each concentration tested in a minimum of two cells (n≥2). The duration of exposure to each compound concentration was 3 minutes.

CYP3A4 = CYP3A4 (Homo sapiens (Human), UniProt P08684); assay: Cytochrome P450 inhibition, fluorescence, CYP3A4; type: in vitro ADME; details: recombinant CYP3A4, fluorescence detection; read-out: CYP inhibition (CYP 3A4 screening, IC50 class)
Chain of CYP3A4 (P08684 whole entry, canonical isoform): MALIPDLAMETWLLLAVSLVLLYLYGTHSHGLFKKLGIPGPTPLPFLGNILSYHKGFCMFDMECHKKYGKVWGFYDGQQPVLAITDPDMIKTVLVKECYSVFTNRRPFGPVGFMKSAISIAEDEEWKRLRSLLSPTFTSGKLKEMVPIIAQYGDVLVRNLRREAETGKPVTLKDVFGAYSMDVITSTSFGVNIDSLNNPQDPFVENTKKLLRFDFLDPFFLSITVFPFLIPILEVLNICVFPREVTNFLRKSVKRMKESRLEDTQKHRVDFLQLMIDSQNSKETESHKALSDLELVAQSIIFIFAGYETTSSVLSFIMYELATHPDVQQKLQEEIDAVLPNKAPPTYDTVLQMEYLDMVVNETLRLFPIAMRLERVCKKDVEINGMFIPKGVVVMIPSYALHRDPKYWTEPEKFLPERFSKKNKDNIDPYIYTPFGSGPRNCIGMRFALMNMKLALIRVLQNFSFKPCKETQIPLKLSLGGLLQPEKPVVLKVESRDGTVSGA
Protocol: The assays for cytochrome P450 inhibition facilitate the identification of drug candidates with lower potential for drug-drug interactions (weak enzymes inhibitors). In vitro experiments were conducted to determine whether a drug inhibits a specific CYP enzyme. The experiments comprised the incubation of the drug with probe substrates for the CYP enzymes, wherein the following recombinant cytochrome P450 isoforms were employed: CYP1A2, CYP2C8, CYP2C9, CYP2C19, CYP2D6 and CYP3A4, together with various probe substrates enabling fluorescence detection. The protocol uses a single substrate concentration near the apparent Km and multiple compound concentrations.
The assay was performed in 96-well microtiter plates. The row designations were A through H and the column designations were 1 through 12. […] Each compound (see Table 6 for tested compounds) was added to the wells in column 1 and serially diluted to the wells in column 8. Wells 9 and 10 were control wells which contained no test compound (therefore no inhibition-full signal is detected.) The wells in columns 11 and 12 were blanks, where STOP solution was added prior to the addition of the enzyme/substrate mix to the NADPH regenerating system (the only signal present in these wells is background noise.) The assay was conducted in a final volume of 0.2 ml per well.
The stock solutions of the tested compounds were prepared in DMSO at 10 mM concentration. […] After mixing the compounds with solution containing NADPH-cofactors, the mixed plate was preincubated in a 37° C. incubator for at least 10 minutes; next, the fluorescence of compounds using recommended excitation/emission filters was measured in order to eliminate false results originating from autofluorescence of the compounds. In the following step, the enzyme/substrate mix was added to columns 1 through 10 and the plates were incubated at 37° C. for specific times depending on the CYP tested (incubation times ranged from 30 to 45 minutes). After adding STOP SOLUTION to all wells and respective enzyme/substrate mix to the wells in columns 11 and 12, the plate was scanned with a fluorescent plate scanner. The excitation/emission filters used for the specific assays are described in the GenTest Screening Kit instruction manual.

HEL92 cells = assay: Growth inhibition, MTS assay, HEL92; type: cell-based, Human; details: MTS cell viability, read-out: HEL92 ED50
SW-480 cells = assay: Growth inhibition, MTS assay, SW-480; type: cell-based, Human; details: 72 hours, MTS cell viability, read-out: SW-480 ED50
MOLM13 cells = assay: Growth inhibition, MTS assay, MOLM13; type: cell-based, Human; details: 72 hours, MTS cell viability; read-out: MOLM 13 ED50
Text: (§2) The following cell lines, were obtained and used in tests as outlined below: • Human myelomonocytic, biphenotypic leukemia MV4-11 cells (harboring a Flt3-ITD mutation); • Human Acute Myeloid Leukemia MOLM16 cells; • Human Acute Myeloid Leukemia MOLM13 cells (harboring a Flt3-ITD mutation); • Human Myeloid Leukemia KG-1 cells; • Human erythroleukemia HEL92 cells; • Human mantle cell lymphoma Jeko-1 cells; • Human hepatocellular carcinoma HepG2 cells; and • Human colon adenocarcinoma SW-480 cells.
(§3) The assays were carried out according to the following protocol, which is described as an example for the MV4-11 cells:
(§4) Ten thousand MV4-11 cells were inoculated into each well of a 96-well microplate (manufactured by Corning Corp.) using Iscove's MDM medium (culture medium) containing 10% fetal calf serum (FCS). The same day, a dimethyl sulfoxide (DMSO) solution of each test compound prepared in a concentration of 10 mmol/L was further diluted with DMSO to the desired concentrations (0.1, 0.5, 1, 2.5, 5 and 10 micromol/L), and the diluted solution was added to each well. The individual wells were further cultured in 5% carbon dioxide at 37° C. for 72 hours. […] Briefly, 10 μl MTS (3-(4,5-Dimethyl-2-thiazolyl)-5-(carboxymethoxyphenyl)-2-(4-sulfophenyl)-2H-tetrazolium was added to each well, and culturing was performed in 5% carbon dioxide at 37° C. for 2 hours. After this incubation and using a microplate spectrophotometer (Synergy 2 multi-mode microplate reader (BioTek)), the absorbance of each well was measured at 490 nm. The value for cells not incubated with a test compound was designated as 100%. By comparing these values with the absorbance difference obtained at the well in which each test compound was added, the cell viability (% viability) after treatment with the test compound was calculated.

MOLM16 cells = assay: Growth inhibition, MTS assay, MOLM16; type: cell-based, Human; details: Homo sapiens, MOLM16, 72 h, MTS cell viability, read-out: MOLM 16 ED50
Text: as §2, §3, §4

Jeko-1 cells = assay: Growth inhibition, MTS assay, Jeko-1; type: cell-based, Human; details: 72 hours, MTS cell viability, read-out: Jeko-1 ED50
Text: as §2, §3, §4

Chain of Pim-1 (P11309 whole entry): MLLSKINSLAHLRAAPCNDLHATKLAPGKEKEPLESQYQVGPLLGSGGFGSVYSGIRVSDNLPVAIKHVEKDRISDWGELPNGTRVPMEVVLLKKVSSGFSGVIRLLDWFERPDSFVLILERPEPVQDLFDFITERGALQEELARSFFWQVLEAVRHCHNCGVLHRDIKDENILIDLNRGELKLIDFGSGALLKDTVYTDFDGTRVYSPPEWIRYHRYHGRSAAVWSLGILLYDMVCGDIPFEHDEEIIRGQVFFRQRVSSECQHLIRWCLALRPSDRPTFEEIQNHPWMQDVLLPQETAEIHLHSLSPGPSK

SMILES | inhibition at 1 µM (Pim-1) [%] | inhibition at 1 µM (Pim-2) [%] | inhibition at 1 µM (Pim-3) [%] | inhibition at 1 µM (FLT3wt) [%] | inhibition at 1 µM (CDK2/E) [%] | inhibition at 1 µM (DYRK1) [%] | IC50 (MV4-11 cells; Homo sapiens, MV4-11, 72 h) [µM] | IC50 (HepG2 cells; Homo sapiens, HepG2, 72 h) [µM] | IC50 (CYP3A4) [µM] | IC50 (HEL92 cells; Homo sapiens, 72 h) [µM] | IC50 (SW-480 cells; Homo sapiens, SW480) [µM] | Pim-2 % INH (1 μM) (Pim-2) [%] | Pim-3 % INH (1 μM) (Pim-3) [%] | Flt3wt % INH (1 μM) (FLT3wt) [%] | DYRK1A % INH (1 μM) (DYRK1) [%] | IC50 (MV4-11 cells; 72 hours) [µM] | further results
COC(CN)CNc1nc2c([N+](=O)[O-])c(Br)c(Br)cc2n1C(C)C (stereo not drawn) [Example 22AB, N-(3-amino-2-methoxypropyl)-5,6-dibromo-4-nitro-1-(propan-2-yl)-1H-1,3-benzodiazol-2-amine] | > 95 | 31 | 76 | < 5 | < 5 | 17 | 3.2 | 5.1 | 3.3 to 10 |  |  |  |  |  |  |  | IC50 (hERG potassium channel): 2.02 µM
NCCCNc1nc2c([N+](=O)[O-])c(Br)c(Br)cc2[nH]1 [Example 1D] | > 95 | 41 | 57 | < 5 | 21 | 16 | 5.9 | 6.2 | > 10 | 8.2 | 6.2 |  |  |  |  |  | 
CC(C)n1c(N2CC[C@@H](N)C2)nc2c([N+](=O)[O-])c(Br)c(Br)cc21 [Example 1AY] |  |  |  |  |  |  |  |  |  |  |  | 89 | >95 | 60 | 87 | 0.5 | Pim-1 % INH (1 μM) (Pim-1): >95%; IC50 (HEL92 cells; 72 hours): 1.9 µM; IC50 (HepG2 cells; 72 hours): 1.5 µM; IC50 (MOLM13 cells): 0.9 µM
CC(C)n1c(NC2CCNC2)nc2c(C#N)c(Br)c(Br)cc21 (stereo not drawn) [Example 1BK] |  |  |  |  |  |  |  |  | > 10 |  |  | 63 | 92 | 20 | 48 | 0.8 | Pim-1 % INH (1 μM) (Pim-1): >95%; CDK2/E % INH (1 μM) (CDK2/E): <5%; IC50 (HepG2 cells; 72 hours): 5.2 µM; IC50 (MOLM16 cells): 0.06 µM
CCn1c(NC2CCCNCC2)nc2c([N+](=O)[O-])c(Br)c(Br)cc21 (stereo not drawn) [Example 1Q] | 86 | 22 | > 95 | < 5 | 6 | 11 | 6.9 | 1.1 | 3.3 to 10 | 8.2 | 5.3 |  |  |  |  |  | IC50 (Jeko-1 cells; Homo sapiens, JeKo-1): 5.4 µM
CC(C)n1c(NC2CCC(N)CC2)nc2c([N+](=O)[O-])c(Br)c(Br)cc21 (stereo not drawn) [Example 1BC] | 79 | 16 | 46 |  |  | 14 | 3.2 |  | 3.3 to 10 | 7.9 |  |  |  | <5 |  |  | CDK2/E % INH (1 μM) (CDK2/E): <5%; IC50 (Jeko-1 cells; Homo sapiens, JeKo-1): 3 µM
CCn1c(NC2CCNC2)nc2c([N+](=O)[O-])c(Br)c(Br)cc21 (stereo not drawn) [Example 1AF] | > 95 | 23 | 71 | < 5 | < 5 | 47 | 1.2 | 1.8 | > 10 | 8.5 | 5.2 |  |  |  |  |  | IC50 (Jeko-1 cells; Homo sapiens, JeKo-1): 2.3 µM
CC(C)n1c(NC2CCNC2)nc2c(C#N)c(Br)c(Br)cc21 (stereo not drawn) [Example 1BH] | 83 |  |  |  | < 5 |  |  | 5.6 | > 10 |  |  | 13 | 60 | <5 | 22 | 4.6 | 
NCCCNc1nc2c([N+](=O)[O-])c(Br)c(Br)cc2n1C1CCCC1 [Example 2H, N-(3-aminopropyl)-5,6-dibromo-1-cyclopentyl-4-nitro-1H-1,3-benzodiazol-2-amine hydrochloride] | > 95 | 56 | > 95 | < 5 | < 5 | 62 | 2 | 1.5 | 3.3 to 10 | 6.8 | 1.4 |  |  |  |  |  | 
CCC(C)n1c(N2CCNCC2)nc2c([N+](=O)[O-])c(Br)c(Br)cc21 (stereo not drawn) [Example 2I, 5,6-dibromo-1-(butan-2-yl)-4-nitro-2-(piperazin-1-yl)-1H-1,3-benzodiazole hydrochloride] | > 95 | 75 | > 95 | 89 | 60 | > 95 | 0.2 | 1.3 | 3.3 to 10 | 0.8 |  |  |  |  |  |  | 
CCn1c(N[C@H]2CCCNC2)nc2c([N+](=O)[O-])c(Br)c(Br)cc21 [Example 1AA] |  |  |  |  |  |  |  |  | 1.1 to 3.3 |  |  | 53 | >95 | 11 | 40 | 1.3 | Pim-1 % INH (1 μM) (Pim-1): >95%; CDK2/E % INH (1 μM) (CDK2/E): <5%; IC50 (HEL92 cells; 72 hours): 4.6 µM; IC50 (HepG2 cells; 72 hours): 2.1 µM; IC50 (Jeko-1 cells): 1.8 µM; IC50 (SW-480 cells): 5.5 µM; IC50 (hERG potassium channel): 2.27 µM
